{"source": "paper PMC5218480", "about": "(PLoS ONE, 2017)", "system": "MV-4-11 cells", "test": "Gene expression microarray analysis (Affymetrix PrimeView) and GSEA", "assay_type": "cell-based, human", "set-up": "RFU PODN (11730768_x_at) / Fold change /veh PODN (11730768_x_at) / RFU LINC00158 (11744669_a_at) / Fold change /veh LINC00158 (11744669_a_at) / RFU DUSP10 (11751237_a_at) / Fold change /veh DUSP10 (11751237_a_at) / RFU ID3 (11757404_x_at) / Fold change /veh ID3 (11757404_x_at) / RFU PLEKHG5 (11737974_s_at) / Fold change /veh PLEKHG5 (11737974_s_at) / RFU LRRC4B (11730491_at) / Fold change /veh LRRC4B (11730491_at) / RFU GIMAP4 (11747438_a_at) / Fold change /veh GIMAP4 (11747438_a_at) / RFU KRT8 (11758183_x_at) / Fold change /veh KRT8 (11758183_x_at) / RFU CNN1 (11734310_a_at) / Fold change /veh CNN1 (11734310_a_at) / RFU VPS37D (11726825_at) / Fold change /veh VPS37D (11726825_at) / RFU C10orf10 (11716522_x_at) / Fold change /veh C10orf10 (11716522_x_at) / RFU KIR2DL2 /// KIR2DL4 /// KIR2DL5A /// KIR2DL5B /// KIR2DS1 /// KIR2DS2 /// KIR2DS3 /// KIR2DS4 /// KIR3DL3 /// KIR3DL3 /// KIR3DS1 (11738374_at) / Fold change /veh KIR2DL2 /// KIR2DL4 /// KIR2DL5A /// KIR2DL5B /// KIR2DS1 /// KIR2DS2 /// KIR2DS3 /// KIR2DS4 /// KIR3DL3 /// KIR3DL3 /// KIR3DS1 (11738374_at) / RFU C1QL1 (11718748_at) / Fold change /veh C1QL1 (11718748_at) / RFU TMPRSS4 (11747572_a_at) / Fold change /veh TMPRSS4 (11747572_a_at) / RFU HAMP (11756126_x_at) / Fold change /veh HAMP (11756126_x_at) / RFU RNFT2 (11725882_a_at) / Fold change /veh RNFT2 (11725882_a_at) / RFU NR4A2 (11747474_a_at) / Fold change /veh NR4A2 (11747474_a_at) / RFU ABCC12 (11746883_a_at) / Fold change /veh ABCC12 (11746883_a_at) / RFU TMEM136 (11760407_x_at) / Fold change /veh TMEM136 (11760407_x_at) / RFU CLDN22 /// WWC2 (11732394_at) / Fold change /veh CLDN22 /// WWC2 (11732394_at) / RFU HLA-DPB1 (11760878_x_at) / Fold change /veh HLA-DPB1 (11760878_x_at) / RFU SPINT1 (11716480_a_at) / Fold change /veh SPINT1 (11716480_a_at) / RFU GAP43 (11754022_s_at) / Fold change /veh GAP43 (11754022_s_at) / RFU A4GNT (11735810_at) / Fold change /veh A4GNT (11735810_at) / RFU PRB3 (11715151_x_at) / Fold change /veh PRB3 (11715151_x_at) / RFU TUBB4B (11761932_at) / Fold change /veh TUBB4B (11761932_at) / RFU CAPN14 (11732068_a_at) / Fold change /veh CAPN14 (11732068_a_at) / RFU TMCC2 (11721928_a_at) / Fold change /veh TMCC2 (11721928_a_at) / RFU IRGQ (11745062_a_at) / Fold change /veh IRGQ (11745062_a_at) / RFU FAM174B (11720279_a_at) / Fold change /veh FAM174B (11720279_a_at) / RFU TMPRSS4 (11748680_a_at) / Fold change /veh TMPRSS4 (11748680_a_at) / RFU FAM212B (11763350_a_at) / Fold change /veh FAM212B (11763350_a_at) / RFU PLEKHG5 (11743358_a_at) / Fold change /veh PLEKHG5 (11743358_a_at) / RFU ZSCAN30 (11745921_a_at) / Fold change /veh ZSCAN30 (11745921_a_at) / RFU CMKLR1 (11741424_a_at) / Fold change /veh CMKLR1 (11741424_a_at) / RFU LOC101060620 /// MAPK8IP1 (11723275_at) / Fold change /veh LOC101060620 /// MAPK8IP1 (11723275_at) / RFU SPTSSB (11747773_x_at) / Fold change /veh SPTSSB (11747773_x_at) / RFU PRSS12 (11739890_at) / Fold change /veh PRSS12 (11739890_at) / RFU BIN1 (11741810_x_at) / Fold change /veh BIN1 (11741810_x_at) / RFU WNT11 (11732464_a_at) / Fold change /veh WNT11 (11732464_a_at) / RFU C10orf10 (11716521_a_at) / Fold change /veh C10orf10 (11716521_a_at) / RFU C5orf56 (11738089_at) / Fold change /veh C5orf56 (11738089_at) / RFU CYB561 (11721691_x_at) / Fold change /veh CYB561 (11721691_x_at) / RFU ANKRD19P (11752326_a_at) / Fold change /veh ANKRD19P (11752326_a_at) / RFU OR2T12 /// OR2T33 /// OR2T8 (11738714_s_at) / Fold change /veh OR2T12 /// OR2T33 /// OR2T8 (11738714_s_at) / RFU VCAN (11748164_a_at) / Fold change /veh VCAN (11748164_a_at) / RFU JSRP1 (11732532_at) / Fold change /veh JSRP1 (11732532_at) / RFU KRTAP10-11 (11738290_x_at) / Fold change /veh KRTAP10-11 (11738290_x_at) / RFU MYO3A (11730013_a_at) / Fold change /veh MYO3A (11730013_a_at) / RFU EBF3 (11725865_a_at) / Fold change /veh EBF3 (11725865_a_at) / RFU CAMK2N1 (11719241_x_at) / Fold change /veh CAMK2N1 (11719241_x_at) / RFU C5orf56 (11738088_a_at) / Fold change /veh C5orf56 (11738088_a_at) / RFU OLFML3 (11715873_a_at) / Fold change /veh OLFML3 (11715873_a_at) / RFU LOC100653217 /// NTM (11731650_a_at) / Fold change /veh LOC100653217 /// NTM (11731650_a_at) / RFU MAPK11 (11762145_a_at) / Fold change /veh MAPK11 (11762145_a_at) / RFU FIZ1 (11724087_x_at) / Fold change /veh FIZ1 (11724087_x_at) / RFU OASL (11726364_x_at) / Fold change /veh OASL (11726364_x_at) / RFU SOX15 (11748057_x_at) / Fold change /veh SOX15 (11748057_x_at) / RFU CD79A (11719716_a_at) / Fold change /veh CD79A (11719716_a_at) / RFU HIST1H1D (11736915_at) / Fold change /veh HIST1H1D (11736915_at) / RFU CASKIN2 (11723855_a_at) / Fold change /veh CASKIN2 (11723855_a_at) / RFU LOC730098 (11760151_x_at) / Fold change /veh LOC730098 (11760151_x_at) / RFU OR4N2 (11742367_at) / Fold change /veh OR4N2 (11742367_at) / RFU PRRT2 (11749266_a_at) / Fold change /veh PRRT2 (11749266_a_at) / RFU SNX32 (11753110_a_at) / Fold change /veh SNX32 (11753110_a_at) / RFU CDHR5 (11726645_a_at) / Fold change /veh CDHR5 (11726645_a_at) / RFU RCAN1 (11760418_a_at) / Fold change /veh RCAN1 (11760418_a_at) / RFU FAM167A (11723789_a_at) / Fold change /veh FAM167A (11723789_a_at) / RFU FAM26E (11764081_at) / Fold change /veh FAM26E (11764081_at) / RFU ISYNA1 (11749810_s_at) / Fold change /veh ISYNA1 (11749810_s_at) / RFU ACY1 (11761880_at) / Fold change /veh ACY1 (11761880_at) / RFU 11764098_at / Fold change /veh 11764098_at / RFU SAMD14 (11745864_x_at) / Fold change /veh SAMD14 (11745864_x_at) / RFU NPB (11741838_a_at) / Fold change /veh NPB (11741838_a_at) / RFU TMPRSS6 (11731388_a_at) / Fold change /veh TMPRSS6 (11731388_a_at) / RFU KRTAP10-2 (11738614_at) / Fold change /veh KRTAP10-2 (11738614_at) / RFU ARHGAP8 /// PRR5-ARHGAP8 (11727945_x_at) / Fold change /veh ARHGAP8 /// PRR5-ARHGAP8 (11727945_x_at) / RFU KRTAP5-7 /// NADSYN1 (11734609_at) / Fold change /veh KRTAP5-7 /// NADSYN1 (11734609_at) / RFU RASL12 (11751679_a_at) / Fold change /veh RASL12 (11751679_a_at) / RFU CDKN2B (11736163_a_at) / Fold change /veh CDKN2B (11736163_a_at) / RFU PRF1 (11729649_at) / Fold change /veh PRF1 (11729649_at) / RFU, ZNF638 /// ZNF638-IT1 / Fold change vs veh, ZNF638 /// ZNF638-IT1 / RFU, PANK3 / Fold change vs veh, PANK3 / RFU, SH3YL1 / Fold change vs veh, SH3YL1 / RFU, ZEB2 / Fold change vs veh, ZEB2 / RFU, NRIP1 / Fold change vs veh, NRIP1 / RFU, PTTG1IP / Fold change vs veh, PTTG1IP / RFU, CAPN2 / Fold change vs veh, CAPN2 / RFU, MED14 / Fold change vs veh, MED14 / RFU, SNORA58 / Fold change vs veh, SNORA58 / RFU, C1orf63 / Fold change vs veh, C1orf63 / RFU, LRRFIP1 / Fold change vs veh, LRRFIP1 / RFU, NDUFAF7 / Fold change vs veh, NDUFAF7 / RFU, SLC12A2 / Fold change vs veh, SLC12A2 / RFU, IBTK / Fold change vs veh, IBTK / RFU, ESF1 / Fold change vs veh, ESF1 / Fold change vs veh, TMEM50B / RFU, TAOK1 / Fold change vs veh, TAOK1 / RFU, ACBD3 / Fold change vs veh, ACBD3 / RFU, TMA16 / Fold change vs veh, TMA16 / RFU, RWDD3 / Fold change vs veh, RWDD3 / RFU, BCAT1 / Fold change vs veh, BCAT1 / RFU, EDEM3 / Fold change vs veh, EDEM3 / RFU, TMEM33 / Fold change vs veh, TMEM33 / RFU, WDR75 / Fold change vs veh, WDR75 / RFU, AHCTF1 / Fold change vs veh, AHCTF1 / RFU, TFRC / Fold change vs veh, TFRC / RFU, ZDHHC17 / Fold change vs veh, ZDHHC17 / RFU, NOM1 / Fold change vs veh, NOM1 / RFU, ARL8B / Fold change vs veh, ARL8B / RFU, ZBTB11 / Fold change vs veh, ZBTB11 / RFU, TAMM41 / Fold change vs veh, TAMM41 / RFU, KIAA1704 /// LOC100996395 / Fold change vs veh, KIAA1704 /// LOC100996395 / RFU, ING1 / Fold change vs veh, ING1 / RFU, TRMT61B / Fold change vs veh, TRMT61B / RFU, FUBP3 / Fold change vs veh, FUBP3 / RFU, TP53 / Fold change vs veh, TP53 / RFU, TNKS2 / Fold change vs veh, TNKS2 / RFU, ZFP14 / Fold change vs veh, ZFP14 / RFU, ACTR2 / Fold change vs veh, ACTR2 / RFU, PPP3R1 / Fold change vs veh, PPP3R1 / RFU, PIK3R1 / Fold change vs veh, PIK3R1 / RFU, HNRNPA1 / Fold change vs veh, HNRNPA1 / RFU, RNF170 / Fold change vs veh, RNF170 / RFU, ZNF28 / Fold change vs veh, ZNF28 / RFU, RNGTT / Fold change vs veh, RNGTT / RFU, OGT / Fold change vs veh, OGT / RFU, BRD1 / Fold change vs veh, BRD1 / RFU, MARS / Fold change vs veh, MARS / RFU, ZNF655 / Fold change vs veh, ZNF655 / RFU, FAHD1 / Fold change vs veh, FAHD1 / RFU, BDP1 / Fold change vs veh, BDP1 / RFU, LRRCC1 / Fold change vs veh, LRRCC1 / RFU, ARID1A / Fold change vs veh, ARID1A / RFU, ZNF146 / Fold change vs veh, ZNF146 / RFU, ZNF330 / Fold change vs veh, ZNF330 / RFU, GPN3 / Fold change vs veh, GPN3 / RFU, C9orf123 / Fold change vs veh, C9orf123 / RFU, N4BP2L2 / Fold change vs veh, N4BP2L2 / RFU, ARFIP1 / Fold change vs veh, ARFIP1 / RFU, FAM179B / Fold change vs veh, FAM179B / RFU, BCL10 / Fold change vs veh, BCL10 / RFU, UHRF1BP1L / Fold change vs veh, UHRF1BP1L / RFU, BET1 / Fold change vs veh, BET1 / RFU, CNOT2 / Fold change vs veh, CNOT2 / RFU, ZNF268 / Fold change vs veh, ZNF268 / Fold change vs veh, ZNF507 / RFU, DGCR2 / Fold change vs veh, DGCR2 / RFU, WDSUB1 / Fold change vs veh, WDSUB1 / Fold change vs veh, HSP90B1 /// MIR3652 / RFU, ADSS / Fold change vs veh, ADSS / RFU, GK / Fold change vs veh, GK / RFU, ZNF148 / Fold change vs veh, ZNF148 / RFU, TAF9 / Fold change vs veh, TAF9 / RFU, SLC1A5 / Fold change vs veh, SLC1A5 / RFU, SLMO2 / Fold change vs veh, SLMO2 / RFU, ABCC4 / Fold change vs veh, ABCC4 / RFU, LOC101060439 /// RAP1B / Fold change vs veh, LOC101060439 /// RAP1B / RFU, RFX7 / Fold change vs veh, RFX7 / RFU, GTPBP10 / Fold change vs veh, GTPBP10 / RFU, CNEP1R1 / Fold change vs veh, CNEP1R1 / RFU, BIVM-ERCC5 /// ERCC5 / Fold change vs veh, BIVM-ERCC5 /// ERCC5 / RFU, ILF3 / Fold change vs veh, ILF3 / RFU 11762660_at / Fold change /veh 11762660_at / RFU VCAN (11757783_s_at) / Fold change /veh VCAN (11757783_s_at) / RFU DDX43 (11728927_at) / Fold change /veh DDX43 (11728927_at) / RFU KRT8 (11758188_x_at) / Fold change /veh KRT8 (11758188_x_at) / RFU NKD1 (11759106_at) / Fold change /veh NKD1 (11759106_at) / RFU SRD5A1 (11742802_a_at) / Fold change /veh SRD5A1 (11742802_a_at) / RFU TPSAB1 /// TPSB2 (11721975_s_at) / Fold change /veh TPSAB1 /// TPSB2 (11721975_s_at) / RFU GSTM3 (11746129_a_at) / Fold change /veh GSTM3 (11746129_a_at) / RFU IL23R (11737362_x_at) / Fold change /veh IL23R (11737362_x_at) / RFU TMEM51 (11727254_a_at) / Fold change /veh TMEM51 (11727254_a_at) / RFU PIWIL2 (11732686_x_at) / Fold change /veh PIWIL2 (11732686_x_at) / RFU ORM1 (11744905_x_at) / Fold change /veh ORM1 (11744905_x_at) / RFU CCDC152 (11743942_at) / Fold change /veh CCDC152 (11743942_at) / RFU ECM1 (11717891_a_at) / Fold change /veh ECM1 (11717891_a_at) / RFU IL23R (11748794_a_at) / Fold change /veh IL23R (11748794_a_at) / RFU TNFAIP8L3 (11732012_x_at) / Fold change /veh TNFAIP8L3 (11732012_x_at) / RFU MBOAT4 (11741988_at) / Fold change /veh MBOAT4 (11741988_at) / RFU 11764193_at / Fold change /veh 11764193_at / RFU TMEM53 (11763286_at) / Fold change /veh TMEM53 (11763286_at) / RFU MAGEB2 (11727129_at) / Fold change /veh MAGEB2 (11727129_at) / RFU TMEM200A (11744735_a_at) / Fold change /veh TMEM200A (11744735_a_at) / RFU CCDC152 (11751479_a_at) / Fold change /veh CCDC152 (11751479_a_at) / RFU FAM211A (11726209_a_at) / Fold change /veh FAM211A (11726209_a_at) / RFU RGS16 (11746705_a_at) / Fold change /veh RGS16 (11746705_a_at) / RFU VCAN (11755009_s_at) / Fold change /veh VCAN (11755009_s_at) / RFU RHOB (11743442_s_at) / Fold change /veh RHOB (11743442_s_at) / RFU RGS16 (11720943_a_at) / Fold change /veh RGS16 (11720943_a_at) / RFU RGS16 (11720944_at) / Fold change /veh RGS16 (11720944_at) / RFU, VPS4B / Fold change vs veh, VPS4B / RFU, CREB1 / Fold change vs veh, CREB1 / RFU, DNAJC13 / Fold change vs veh, DNAJC13 / RFU, GNAQ / Fold change vs veh, GNAQ / RFU, CDK5R1 / Fold change vs veh, CDK5R1 / RFU, ZRANB3 / Fold change vs veh, ZRANB3 / RFU, CUL4A / Fold change vs veh, CUL4A / RFU, CCNY / Fold change vs veh, CCNY / RFU, UFL1 / Fold change vs veh, UFL1 / RFU, COG3 / Fold change vs veh, COG3 / RFU, DIAPH2 / Fold change vs veh, DIAPH2 / RFU, SKA2 / Fold change vs veh, SKA2 / RFU, AFF3 / Fold change vs veh, AFF3 / RFU, LMF1 / Fold change vs veh, LMF1 / RFU, IPO11 / Fold change vs veh, IPO11 / RFU, DFFB / Fold change vs veh, DFFB / RFU, FOXP1 / Fold change vs veh, FOXP1 / RFU, CARD8 / Fold change vs veh, CARD8 / RFU, STRN3 / Fold change vs veh, STRN3 / RFU, ADK / Fold change vs veh, ADK / RFU, RASSF2 / Fold change vs veh, RASSF2 / RFU, WIPF1 / Fold change vs veh, WIPF1 / RFU, LARP1B / Fold change vs veh, LARP1B / RFU, RASA1 / Fold change vs veh, RASA1 / RFU, RB1 / Fold change vs veh, RB1 / RFU, PPFIA1 / Fold change vs veh, PPFIA1 / RFU, MAT2A / Fold change vs veh, MAT2A / RFU, CCT5 / Fold change vs veh, CCT5 / RFU, WDR92 / Fold change vs veh, WDR92 / RFU, CUX1 / Fold change vs veh, CUX1 / RFU, TTC7A / Fold change vs veh, TTC7A / RFU, TMEM135 / Fold change vs veh, TMEM135 / RFU, DEPTOR / Fold change vs veh, DEPTOR / RFU, CPM / Fold change vs veh, CPM / RFU, DNAJB6 / Fold change vs veh, DNAJB6 / RFU, CACNA2D3 / Fold change vs veh, CACNA2D3 / RFU, DTX4 / Fold change vs veh, DTX4 / RFU, TFCP2 / Fold change vs veh, TFCP2 / RFU, GMCL1 /// GMCL1P1 / Fold change vs veh, GMCL1 /// GMCL1P1 / RFU, AEBP2 / Fold change vs veh, AEBP2 / RFU, SNHG1 /// SNORD22 /// SNORD25 /// SNORD26 /// SNORD27 /// SNORD28 /// SNORD29 /// SNORD31 / Fold change vs veh, SNHG1 /// SNORD22 /// SNORD25 /// SNORD26 /// SNORD27 /// SNORD28 /// SNORD29 /// SNORD31 / Fold change (Aza/veh), C12orf56 (ProbeSet 11735607_a_at) / Fold change (ACY-1035/veh), C12orf56 (ProbeSet 11735607_a_at) / Fold change (Aza/veh), FGFR1OP (ProbeSet 11751329_s_at) / Fold change (ACY-1035/veh), FGFR1OP (ProbeSet 11751329_s_at) / Fold change (Aza/veh), VPS36 (ProbeSet 11739960_a_at) / Fold change (ACY-1035/veh), VPS36 (ProbeSet 11739960_a_at) / RFU SYPL1 (11715823_x_at) / Fold change /veh SYPL1 (11715823_x_at) / RFU IGFBP7 (11715501_s_at) / Fold change /veh IGFBP7 (11715501_s_at) / RFU REEP3 (11722064_at) / Fold change /veh REEP3 (11722064_at) / RFU IGLL1 (11728026_x_at) / Fold change /veh IGLL1 (11728026_x_at): dose or concentration left out as unconfirmed", "conditions": "ProbeSet 11723475_a_at; LIST B", "data": [{"smiles": "Nc1ncn([C@@H]2O[C@H](CO)[C@@H](O)[C@H]2O)c(=O)n1", "note": "[azacitidine]", "values": [{"measurement": "RFU, TRMT61B", "result": 139.59, "unit": "RFU"}]}]}
